Source: ChEMBL document CHEMBL5465560, “Selectivity Literature for EUbOPEN Chemogenomic Library” (2024)

How the values were obtained:
[1] = target: T1, Phosphatidylinositol 5-phosphate 4-kinase type-2 beta (Homo sapiens) (UniProt P78356); assay: Selectivity interaction (KinomeScan (DiscoverX)) EUB0000695a PIP4K2B; settings: at 100 nM
T1 sequence (whole entry): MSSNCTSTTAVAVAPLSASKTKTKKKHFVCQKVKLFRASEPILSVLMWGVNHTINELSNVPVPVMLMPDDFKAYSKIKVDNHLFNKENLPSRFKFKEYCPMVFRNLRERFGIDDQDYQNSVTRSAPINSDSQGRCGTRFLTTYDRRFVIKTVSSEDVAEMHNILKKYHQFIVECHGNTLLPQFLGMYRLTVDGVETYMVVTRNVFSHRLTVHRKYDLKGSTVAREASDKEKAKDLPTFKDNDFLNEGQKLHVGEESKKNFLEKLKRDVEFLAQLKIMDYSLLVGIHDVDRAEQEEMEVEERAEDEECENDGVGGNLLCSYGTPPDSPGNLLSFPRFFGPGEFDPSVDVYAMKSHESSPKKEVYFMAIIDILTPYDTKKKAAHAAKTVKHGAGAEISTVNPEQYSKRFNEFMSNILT

[2] = target: T2, Membrane-associated tyrosine- and threonine-specific cdc2-inhibitory kinase (Homo sapiens) (UniProt Q99640); assay: Selectivity interaction (KinomeScan (DiscoverX)) EUB0000695a PKMYT1; settings: at 100 nM
T2 sequence (whole entry): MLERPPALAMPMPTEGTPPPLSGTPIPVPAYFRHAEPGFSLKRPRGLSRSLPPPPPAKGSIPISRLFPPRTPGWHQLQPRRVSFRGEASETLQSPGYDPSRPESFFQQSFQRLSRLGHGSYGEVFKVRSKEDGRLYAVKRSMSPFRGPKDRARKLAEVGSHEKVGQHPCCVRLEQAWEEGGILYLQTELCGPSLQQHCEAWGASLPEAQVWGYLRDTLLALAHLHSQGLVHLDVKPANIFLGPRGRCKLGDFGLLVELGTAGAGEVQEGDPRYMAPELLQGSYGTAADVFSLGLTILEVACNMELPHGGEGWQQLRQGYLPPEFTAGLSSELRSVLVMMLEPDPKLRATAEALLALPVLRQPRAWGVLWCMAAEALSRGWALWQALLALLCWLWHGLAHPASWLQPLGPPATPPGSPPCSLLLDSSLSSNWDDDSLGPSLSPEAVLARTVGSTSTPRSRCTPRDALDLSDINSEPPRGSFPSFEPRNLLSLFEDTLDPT

[3] = target: Calcium/calmodulin-dependent protein kinase type 1G (Homo sapiens) (UniProt Q96NX5); assay: Selectivity interaction (KinomeScan (DiscoverX)) EUB0001079a CAMK1G; settings: at 1 µM
[4] = target: Tyrosine-protein kinase Srms (Homo sapiens) (UniProt Q9H3Y6); assay: Selectivity interaction (Kinase panel (Z-LYTE Assay)) EUB0001632a SRMS; settings: at 10 µM
[5] = tested on: Tyrosine-protein kinase ABL1 (Homo sapiens), P00519 [H396P]; settings: at 10 µM
[6] = target: Tyrosine-protein kinase Fer (Homo sapiens) (UniProt P16591); assay: Selectivity interaction (Kinase screening (Nanosyn)) EUB0000604a FER
[7] = target: Vascular endothelial growth factor receptor 1 (Homo sapiens) (UniProt P17948); assay: Selectivity interaction (Kinase panel (Eurofins)) EUB0001564a FLT1; settings: at 1 µM
[8] = target: Serine/threonine-protein kinase Nek7 (Homo sapiens) (UniProt Q8TDX7); assay: Selectivity interaction (Kinase panel (Invitrogen)) EUB0000639a NEK7; settings: at 200 nM
[9] = target: T3, Serine/threonine-protein kinase Sgk3 (Homo sapiens) (UniProt Q96BR1); assay: Selectivity interaction (ActivX KiNativ screen (kinase selectivity in THP-1 cell lysates)) EUB0000639a SGK3; format: subcellular; settings: lysate
T3 sequence (whole entry): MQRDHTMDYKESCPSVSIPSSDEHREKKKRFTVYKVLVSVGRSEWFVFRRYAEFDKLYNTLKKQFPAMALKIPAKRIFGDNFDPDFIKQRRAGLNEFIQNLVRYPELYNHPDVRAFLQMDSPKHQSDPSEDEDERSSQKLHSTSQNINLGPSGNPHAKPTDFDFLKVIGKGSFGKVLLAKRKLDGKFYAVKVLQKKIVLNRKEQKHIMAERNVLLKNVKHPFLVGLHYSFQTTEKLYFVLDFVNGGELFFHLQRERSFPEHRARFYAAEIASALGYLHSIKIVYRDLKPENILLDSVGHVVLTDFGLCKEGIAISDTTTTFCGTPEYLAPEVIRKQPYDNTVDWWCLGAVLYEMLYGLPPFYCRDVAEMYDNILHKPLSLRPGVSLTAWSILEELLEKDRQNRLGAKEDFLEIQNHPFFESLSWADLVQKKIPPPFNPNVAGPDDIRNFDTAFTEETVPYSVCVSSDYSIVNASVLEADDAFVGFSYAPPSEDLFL

[10] = target: Serine/threonine-protein kinase PRP4 homolog (Homo sapiens) (UniProt Q13523); assay: Selectivity interaction (ActivX KiNativ screen (kinase selectivity in THP-1 cell lysates)) EUB0000639a PRPF4; format: subcellular; settings: lysate, at 5 µM
[11] = target: Mitogen-activated protein kinase 14 (Homo sapiens, UniProt Q16539); assay: Selectivity interaction (KinomeScan (DiscoverX)) EUB0000092b MAPK14; settings: at 10 µM
[12] = target: T4, Serine/threonine-protein kinase TBK1 (Homo sapiens) (UniProt Q9UHD2); assay: Selectivity interaction (Ambit KINOMEscan and KiNATiv profiling in Jurkat cells) EUB0000090b TBK1; format: cell-based; settings: at 1 µM
T4 sequence (whole entry): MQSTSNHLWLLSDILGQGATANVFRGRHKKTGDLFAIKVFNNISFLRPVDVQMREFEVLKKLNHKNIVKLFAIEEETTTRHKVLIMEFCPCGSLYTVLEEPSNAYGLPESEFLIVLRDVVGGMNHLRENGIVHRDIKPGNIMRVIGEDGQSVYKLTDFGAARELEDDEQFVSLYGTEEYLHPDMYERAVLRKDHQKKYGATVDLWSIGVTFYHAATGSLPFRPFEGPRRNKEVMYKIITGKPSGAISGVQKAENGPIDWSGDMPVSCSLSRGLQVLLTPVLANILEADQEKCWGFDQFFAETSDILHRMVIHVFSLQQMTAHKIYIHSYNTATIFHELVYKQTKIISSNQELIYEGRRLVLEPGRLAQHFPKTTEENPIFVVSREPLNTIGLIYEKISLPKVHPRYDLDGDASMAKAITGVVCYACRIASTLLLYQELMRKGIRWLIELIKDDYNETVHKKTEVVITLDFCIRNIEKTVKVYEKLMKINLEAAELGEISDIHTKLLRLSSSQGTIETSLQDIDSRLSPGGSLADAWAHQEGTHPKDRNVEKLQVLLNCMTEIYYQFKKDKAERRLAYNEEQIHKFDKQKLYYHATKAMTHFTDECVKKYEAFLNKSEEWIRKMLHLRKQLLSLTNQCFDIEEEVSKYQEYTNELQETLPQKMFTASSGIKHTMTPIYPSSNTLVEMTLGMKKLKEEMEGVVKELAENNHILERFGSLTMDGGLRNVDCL

Sequence of Serine/threonine-protein kinase PRP4 homolog (Homo sapiens) (Q13523 whole entry): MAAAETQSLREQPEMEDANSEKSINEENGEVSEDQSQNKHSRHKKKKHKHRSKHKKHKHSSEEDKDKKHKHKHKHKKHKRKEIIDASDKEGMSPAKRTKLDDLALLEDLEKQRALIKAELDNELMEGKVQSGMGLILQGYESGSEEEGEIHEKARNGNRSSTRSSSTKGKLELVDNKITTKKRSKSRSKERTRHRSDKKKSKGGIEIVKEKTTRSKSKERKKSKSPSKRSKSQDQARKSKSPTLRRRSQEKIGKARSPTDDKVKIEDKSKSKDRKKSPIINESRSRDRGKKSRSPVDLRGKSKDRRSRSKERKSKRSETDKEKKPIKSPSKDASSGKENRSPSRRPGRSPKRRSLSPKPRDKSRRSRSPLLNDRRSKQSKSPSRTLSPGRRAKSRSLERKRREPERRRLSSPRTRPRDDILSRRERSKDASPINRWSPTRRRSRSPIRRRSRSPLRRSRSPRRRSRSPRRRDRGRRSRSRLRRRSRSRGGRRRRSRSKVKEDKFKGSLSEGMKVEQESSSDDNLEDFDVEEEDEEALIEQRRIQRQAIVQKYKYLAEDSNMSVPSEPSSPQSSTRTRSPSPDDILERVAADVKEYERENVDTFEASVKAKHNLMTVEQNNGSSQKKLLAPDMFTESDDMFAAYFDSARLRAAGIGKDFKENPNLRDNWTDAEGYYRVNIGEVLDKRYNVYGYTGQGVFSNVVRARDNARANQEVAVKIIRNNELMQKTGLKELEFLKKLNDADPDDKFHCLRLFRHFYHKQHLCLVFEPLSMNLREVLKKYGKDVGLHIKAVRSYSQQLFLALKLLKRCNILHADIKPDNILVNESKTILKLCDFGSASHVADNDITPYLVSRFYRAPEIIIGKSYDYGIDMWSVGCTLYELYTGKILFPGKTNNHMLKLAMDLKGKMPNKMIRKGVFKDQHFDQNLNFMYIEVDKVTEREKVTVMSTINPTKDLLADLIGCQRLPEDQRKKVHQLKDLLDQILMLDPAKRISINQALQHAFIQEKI
Sequence of Mitogen-activated protein kinase 14 (Q16539 whole entry): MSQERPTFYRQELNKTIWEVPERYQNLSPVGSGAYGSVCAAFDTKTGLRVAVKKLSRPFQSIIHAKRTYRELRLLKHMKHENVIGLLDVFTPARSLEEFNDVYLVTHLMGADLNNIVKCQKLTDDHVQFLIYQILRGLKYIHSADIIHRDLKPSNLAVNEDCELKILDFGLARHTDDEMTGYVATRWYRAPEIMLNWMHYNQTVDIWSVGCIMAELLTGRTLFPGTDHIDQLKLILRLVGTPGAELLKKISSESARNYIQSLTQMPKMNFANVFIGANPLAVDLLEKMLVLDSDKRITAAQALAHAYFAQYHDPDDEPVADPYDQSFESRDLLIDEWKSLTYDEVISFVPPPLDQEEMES
Sequence of Calcium/calmodulin-dependent protein kinase type 1G (Homo sapiens) (Q96NX5 whole entry): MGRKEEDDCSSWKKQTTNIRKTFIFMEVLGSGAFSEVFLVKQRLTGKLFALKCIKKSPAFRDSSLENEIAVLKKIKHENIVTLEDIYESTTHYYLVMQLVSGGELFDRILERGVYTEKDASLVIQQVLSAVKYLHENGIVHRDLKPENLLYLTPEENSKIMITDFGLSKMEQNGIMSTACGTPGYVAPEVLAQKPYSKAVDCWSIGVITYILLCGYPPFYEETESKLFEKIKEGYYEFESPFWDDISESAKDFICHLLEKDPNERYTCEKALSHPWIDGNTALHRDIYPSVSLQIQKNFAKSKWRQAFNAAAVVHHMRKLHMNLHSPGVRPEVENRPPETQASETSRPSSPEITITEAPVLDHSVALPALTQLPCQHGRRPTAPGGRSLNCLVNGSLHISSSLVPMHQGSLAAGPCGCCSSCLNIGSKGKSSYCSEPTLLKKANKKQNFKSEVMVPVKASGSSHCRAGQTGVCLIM
Sequence of Tyrosine-protein kinase Fer (Homo sapiens) (P16591 whole entry, looked up): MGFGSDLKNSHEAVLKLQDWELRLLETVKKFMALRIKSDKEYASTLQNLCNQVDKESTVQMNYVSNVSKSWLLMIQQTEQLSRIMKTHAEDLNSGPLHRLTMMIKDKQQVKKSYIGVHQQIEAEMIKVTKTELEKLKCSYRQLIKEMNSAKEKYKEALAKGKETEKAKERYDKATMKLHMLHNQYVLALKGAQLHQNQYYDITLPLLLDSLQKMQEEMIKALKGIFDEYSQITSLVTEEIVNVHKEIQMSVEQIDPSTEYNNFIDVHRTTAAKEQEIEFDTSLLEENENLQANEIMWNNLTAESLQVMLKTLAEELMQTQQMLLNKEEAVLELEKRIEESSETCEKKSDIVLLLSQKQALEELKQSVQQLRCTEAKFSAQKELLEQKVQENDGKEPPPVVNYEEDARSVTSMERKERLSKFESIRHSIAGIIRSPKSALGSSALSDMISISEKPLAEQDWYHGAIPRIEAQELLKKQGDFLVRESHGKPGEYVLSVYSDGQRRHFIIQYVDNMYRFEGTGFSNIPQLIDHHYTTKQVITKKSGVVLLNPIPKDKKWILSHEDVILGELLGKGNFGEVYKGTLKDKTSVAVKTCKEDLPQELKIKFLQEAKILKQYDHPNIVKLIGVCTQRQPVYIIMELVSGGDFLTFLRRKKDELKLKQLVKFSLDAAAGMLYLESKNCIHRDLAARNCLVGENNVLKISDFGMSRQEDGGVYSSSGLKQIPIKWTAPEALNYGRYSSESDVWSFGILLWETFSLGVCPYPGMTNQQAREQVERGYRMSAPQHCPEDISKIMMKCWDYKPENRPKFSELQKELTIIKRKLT
Sequence of Serine/threonine-protein kinase Nek7 (Homo sapiens) (Q8TDX7 whole entry, looked up): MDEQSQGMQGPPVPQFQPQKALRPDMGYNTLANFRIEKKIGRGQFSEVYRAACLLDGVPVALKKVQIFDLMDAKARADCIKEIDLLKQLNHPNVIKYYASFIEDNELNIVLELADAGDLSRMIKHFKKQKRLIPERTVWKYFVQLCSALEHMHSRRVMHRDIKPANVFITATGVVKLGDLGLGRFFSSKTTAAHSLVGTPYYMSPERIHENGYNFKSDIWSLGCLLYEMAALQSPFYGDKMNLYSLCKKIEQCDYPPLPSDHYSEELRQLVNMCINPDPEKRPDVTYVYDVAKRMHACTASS
Sequence of Tyrosine-protein kinase Srms (Homo sapiens) (Q9H3Y6 whole entry): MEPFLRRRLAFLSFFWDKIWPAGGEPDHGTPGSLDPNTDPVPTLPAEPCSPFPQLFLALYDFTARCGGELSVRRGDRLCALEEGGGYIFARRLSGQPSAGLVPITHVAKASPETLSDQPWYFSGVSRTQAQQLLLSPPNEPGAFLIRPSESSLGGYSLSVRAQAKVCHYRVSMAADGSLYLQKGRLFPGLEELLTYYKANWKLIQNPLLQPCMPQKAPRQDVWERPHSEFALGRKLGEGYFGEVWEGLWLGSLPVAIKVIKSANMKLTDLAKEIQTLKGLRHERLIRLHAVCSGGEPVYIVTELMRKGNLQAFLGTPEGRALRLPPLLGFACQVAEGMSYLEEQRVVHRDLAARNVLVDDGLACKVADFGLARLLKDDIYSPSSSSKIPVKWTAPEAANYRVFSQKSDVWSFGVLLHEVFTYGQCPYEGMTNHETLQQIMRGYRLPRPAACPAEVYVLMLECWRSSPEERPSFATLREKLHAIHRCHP
Sequence of Vascular endothelial growth factor receptor 1 (Homo sapiens) (P17948 whole entry): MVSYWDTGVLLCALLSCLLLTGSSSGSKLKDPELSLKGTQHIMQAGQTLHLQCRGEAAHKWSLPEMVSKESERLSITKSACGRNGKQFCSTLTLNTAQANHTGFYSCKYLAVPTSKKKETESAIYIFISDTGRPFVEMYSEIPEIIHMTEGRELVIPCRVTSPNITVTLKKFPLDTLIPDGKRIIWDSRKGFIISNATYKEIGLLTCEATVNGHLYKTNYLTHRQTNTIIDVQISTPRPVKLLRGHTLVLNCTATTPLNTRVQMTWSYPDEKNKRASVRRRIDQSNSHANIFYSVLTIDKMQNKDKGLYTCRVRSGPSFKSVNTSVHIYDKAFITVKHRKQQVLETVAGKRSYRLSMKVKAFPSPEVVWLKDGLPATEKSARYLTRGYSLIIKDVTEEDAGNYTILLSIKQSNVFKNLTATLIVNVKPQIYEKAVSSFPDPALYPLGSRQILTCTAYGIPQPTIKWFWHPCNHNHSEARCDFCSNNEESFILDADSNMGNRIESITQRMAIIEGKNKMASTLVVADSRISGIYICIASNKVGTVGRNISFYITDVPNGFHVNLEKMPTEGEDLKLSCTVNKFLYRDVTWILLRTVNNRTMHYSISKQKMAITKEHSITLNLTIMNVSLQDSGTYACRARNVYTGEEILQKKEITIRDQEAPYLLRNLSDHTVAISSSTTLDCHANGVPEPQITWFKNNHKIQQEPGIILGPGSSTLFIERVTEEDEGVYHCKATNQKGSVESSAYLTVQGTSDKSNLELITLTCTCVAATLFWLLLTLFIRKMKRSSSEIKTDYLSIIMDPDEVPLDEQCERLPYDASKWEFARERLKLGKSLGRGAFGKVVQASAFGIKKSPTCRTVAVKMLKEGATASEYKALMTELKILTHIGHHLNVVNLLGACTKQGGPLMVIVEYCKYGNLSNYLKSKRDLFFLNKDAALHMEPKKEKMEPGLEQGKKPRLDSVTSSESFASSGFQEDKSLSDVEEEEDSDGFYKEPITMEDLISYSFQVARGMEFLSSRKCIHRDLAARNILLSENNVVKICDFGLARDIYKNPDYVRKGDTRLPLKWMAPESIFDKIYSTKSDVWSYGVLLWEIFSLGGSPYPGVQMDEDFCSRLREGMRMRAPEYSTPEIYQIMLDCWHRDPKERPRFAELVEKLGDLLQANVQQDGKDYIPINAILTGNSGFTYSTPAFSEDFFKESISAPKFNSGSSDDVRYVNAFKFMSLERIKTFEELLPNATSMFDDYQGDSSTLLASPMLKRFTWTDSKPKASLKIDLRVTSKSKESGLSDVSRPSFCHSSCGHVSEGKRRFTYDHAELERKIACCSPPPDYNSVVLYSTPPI

Cc1cc(F)c(C(=O)Nc2cccc(-c3nncn3C(C)C)n2)cc1-n1cnc(C2CC2)c1
% of control [1]: 92% | % of control [2]: 98%

Nc1cnc(N2CCc3cc(S(=O)(=O)Nc4c(F)cc(Cl)cc4F)cc(N4CCCC4=O)c32)nc1 [TP-020n]
% of control [3]: 100%

Cn1cc(-n2cnc3c(NCc4nc5cc(Cl)c(Cl)cc5[nH]4)nc(N4CCOCC4)nc32)cn1
% of control [4]: -3.87%

Cc1cc([C@@H](C)Nc2ccccc2C(=O)O)c2nc(N3CCOCC3)cc(=O)n2c1 [AZD-6482]
% of control [5]: 87%

Cc1cnc(Nc2ccc(F)cc2Cl)nc1-c1c[nH]c(C(=O)N[C@H](CO)c2cccc(Cl)c2)c1
% of inhibition [6]: 3%

CC[C@@H](Nc1c(C#N)c(-c2ccc(-c3cccc(C)c3F)cc2)nc2cnccc12)C(=O)O [BAY-091]
% of inhibition [7]: 56.8%

CC[C@@H]1[C@H](F)C(=O)N[C@@H]1COc1nccc2cc(C(N)=O)c(OC)cc12 [ZIMLOVISERTIB]
% of inhibition [8]: -1.03% | % of inhibition ([9]; at 0.01 µM): 51.3% | % of inhibition ([9]; at 0.04 µM): 6.7% | % of inhibition ([9]; at 0.2 µM): 7.4% | % of inhibition ([9]; at 1 µM): 18.9% | % of inhibition ([9]; at 5 µM): 25.3% | % of inhibition [10]: 88.3%

CCC(=O)N1CCN(c2ccc(-n3c(=O)ccc4cnc5ccc(-c6cnc7ccccc7c6)cc5c43)cc2C(F)(F)F)CC1
% of control [11]: 90%

CN(C)C/C=C/C(=O)Nc1ccc(C(=O)N2CCCC(Nc3ncc(Cl)c(-c4c[nH]c5ccccc45)n3)C2)cc1 (stereo unspecified)
% of control [12]: 96%
